Experimental data reported in patent US11851459B2, “Methods and uses of modulators of anaphase promoting complex (APC) activity for treating cancer” (University of Saskatchewan, priority 2018, dated 2023).

Columns and labels:
APC (substrate Cyclin B) = assay: Cyclin B protein levels in MCF7 cells; type: cell-based, human; details: MCF7, 48 hrs; 1 mM metformin or transient transfection of peptide plasmid
Method: MCF7 breast cancer cells were treated with 1 mM metformin or transiently transfected with an APC activating peptide (C43-4) for 48 hrs, then harvested for assessment of Cyclin B protein levels. Cyclin B is an APC target.
A mouse model for growing patient derived breast tumor cells obtained from a patient with triple negative breast cancer was developed. This patient had developed resistance to Doxorubicin. Tumors growing in these mice grow rapidly. Mice growing the patient derived xenografted (PDX) tumor were injected with various amounts of M2I-1. […] Since the APC was activated in the canines tested in this study following treatment with metformin, it was asked if metformin can directly activate the APC. Reduced APC substrate Cyclin B levels following metformin treatment in human MCF7 breast cancer cells was observed, similar to that observed when MDF7 cells express the C43-4 plasmid (see below for more on this plasmid) (FIG. 21).

wild type (WT) cells = assay: C43-4 mutant peptides, spot dilution under temperature and UV stress, WT cells; type: cell-based, yeast; details: low level expression on glucose
Method: The cells were exposed to 5 sec of UV from a UV box prior to incubation. The plus signs define growth compared to the empty vector control.
Residues 2, 7, 8, 10, 12 and 14 of peptide C43-4 are conserved with Htz1. All of these residues were mutated to alanine (FIG. 10). Peptides that contained mutations designed to determine which amino acids were required for function were generated. These mutant peptides were grown in wild type cells and in cells that had APC10 mutated, under temperature and UV stress conditions (FIGS. 10-12).
These cells were spot diluted on Trp^− plates and grown at the temperatures shown and/or exposed to ultraviolet (UV) irradiation (FIGS. 10-12). At low level expression on glucose, some of the mutations caused stress dependent phenotypes.
• 1. Cells were cultured overnight in Trp^− 2% glucose media • 2. The growth of the cells was determined by measuring the optical density (OD) of the cells at 600 nm (OD600) • 3. Cells were diluted to OD600 of 1 with fresh culture media • 4. 100 ul of each culture was pipetted into a well of a 96 well plate • 5. 10 ul of the each starting culture was pipetted into 90 ul of water in 4 additional wells to make a 10-fold serial spot dilution • 6. 5 ul from each serial dilution was spotted onto plates containing standard growth media with either 2% glucose or 2% galactose using a multi-pipettor • 7. The plates were exposed to UV • 8. […]

Sequence: NGSSHNDLRVRRLTLISRLC [C43-4]
- APC substrate Cyclin B protein levels (APC (substrate Cyclin B)): reduces protein levels
- stress resistance (growth compared to empty vector) (wild type (WT) cells): increased stress resistance
